Structures can show the parent of a compound that is named as a salt.
How the values were obtained:
[1] = test system: tyrosine hydroxylase positive neurons; experiment: Surviving tyrosine hydroxylase positive neurons in substantia nigra of MPTP marmosets; format: in vivo, marmoset monkeys (Callithrix jacchus); details: Week 14, substantia nigra; FIG. 3
Procedure: (§1) The severity of LID was measured by abnormal involuntary movements score (AIMS) adapted to the primate PD model. The items include assessment of extremity and trunk movements, facial expression, and movement of the lips, peri-oral area, tongue, and jaw. These symptoms were scored on a scale from 0 (normal), 1 ([…]), 2 (mild), 3 (moderate) to 4 (severe). Measurement of parkinsonian behaviors continued as previously described. […] The subjects were exsanguinated under deep anaesthesia with Alphaxan (18 mg/kg i.m.). Immediately thereafter, the subjects were euthanized with EUTHASOL (pentobarbital natrium, i.c.). The brain of each subject was removed and frozen for immunohistochemical analyses. SNpc was analyzed for the presence of DA positive neurons with tyrosine hydroxylase immune reactive (TH-IR) staining.
In Week 14, all subjects were sacrificed and tissue samples from the substantia nigra were evaluated to measure the number of surviving tyrosine hydroxylase positive neurons. The increase in number of surviving TH+ neurons for subjects treated with amantadine and 17-EAT was 40% and 75%, as shown in FIG. 3.

[2] = test system: MPTP model of Parkinson's disease; experiment: Immobility score, MPTP model of Parkinson's disease in marmoset monkeys; format: in vivo, marmoset monkeys (Callithrix jacchus); details: for Mean immobility score: 0-4 scale
Text: (§2) The 1-methyl-4-phenyl-1,2,3,6-tetrahydropyridine (MPTP) model that was used is capable of reducing striatal dopamine levels to 5% of normal controls. The MPTP model was used to produce Parkinson's-like disease symptoms in three sequential independent cohorts of six marmosets monkeys (Callithrix jacchus, approximately 0.3-0.5 kg, 2-5 years) which were then observed for 3 weeks to confirm the absence of parkinsonian behavior and motor abnormalities. A single dose of 17-EAT or amantadine was administered at the beginning of Week 4 to confirm the absence of behavioral side effects. All subjects received subcutaneous injections of 1-2 mg/kg MPTP on Days 3, 4, and 5 of Week 5 and Day 1 and 3 of Week 6 for a total of 6.5 mg/kg MPTP and were observed through the end of Week 7 without further treatment, then randomized for treatment.
Oral administration of treatment of vehicle, amantadine, or 17-EAT formulated in acacia syrup began at the start of Week 8. Vehicle controls received acacia syrup only. Amantadine HCl (Sigma Aldrich, A1260-SG) was administered daily at a dose of 1 mg/kg. 17-EAT was administered daily at a dose of 30 mg/kg. In Weeks 8 and 9 test compound activity against parkinsonian behavior was observed several times daily for effects on clinical signs (lack of grooming, apathy, immobility, muscle rigidity, and tremor activity) and given an immobility score on a 0-4 scale, with 0 being normal and 4 being the most severe score. Ratings were performed by study personnel blind to treatment.

[3] = test system: levodopa-induced dyskinesia (LID); experiment: Abnormal involuntary movements score (AIMS), levodopa-induced dyskinesia in MPTP marmosets; format: in vivo, marmoset monkeys (Callithrix jacchus); details: for AIMS: Week 12, in combination with levodopa 10 mg/kg, items scored 0-4; for Abnormal involuntary movements scores (AIMS) in combination with levodopa: Week 12, levodopa 5, 7.5, 10, 12.5 or 25 mg/kg, FIG. 2
Procedure: as §1

[4] = Body weight of MPTP marmosets; format: in vivo, marmoset monkeys (Callithrix jacchus); details: FIG. 4
Text: as §2
Oral administration of treatment of vehicle, amantadine, or 17-EAT formulated in acacia syrup began at the start of Week 8. Vehicle controls received acacia syrup only. Amantadine HCl (Sigma Aldrich, A1260-SG) was administered daily at a dose of 1 mg/kg. 17-EAT was administered daily at a dose of 30 mg/kg. […]

[5] = test system: TNF, IL-1b, IL-6, and other inflammatory cytokines; details: cited from earlier work
[6] = test system: rodent models of systemic inflammation and neuroinflammation; details: cited from earlier work
[7] = Week 7, prior to treatment, 0 normal, 4 most severe
[8] = Week 8, monotherapy, oral daily (amantadine 1 mg/kg, 17-EAT 30 mg/kg)
[9] = Week 9, monotherapy, oral daily (amantadine 1 mg/kg, 17-EAT 30 mg/kg)

LID expression ([3]; levodopa 12.5 mg/kg BID) | SMILES | Increase in number of surviving TH+ neurons [1] | Mean immobility score [2, 7] | Mean immobility score [2, 8] | Mean immobility score [2, 9] | AIMS [3] | Abnormal involuntary movements scores (AIMS) in combination with levodopa [3] | Mean immobility scores in combination with levodopa ([2]; combination with levodopa 5, 7.5, 10, 12.5 or 25 mg/kg, FIG. 1) | Mean body weight [4] | Expression of TNF, IL-1b, IL-6, and other inflammatory cytokines [5] | Activity in rodent models of neurological disease ([6]; Parkinson's disease, experimental autoimmune encephalomyelitis, optic neuritis, glaucoma) | Activity in rodent models of systemic inflammation ([6]; type 2 diabetes, COPD, rheumatoid arthritis)
 | NC12CC3CC(CC(C3)C1)C2 [Amantadine, Amantadine HCl] | 40% | 2.59 | 2.74 | 2.72 | 4.5 | improved compared to monotherapy |  |  |  |  | 
 | C#C[C@]1(O)CC[C@H]2[C@@H]3[C@@H](O)C=C4C[C@@H](O)CC[C@]4(C)[C@H]3CC[C@@]21C [Compound 17-EAT, 17-ethynyl-10R, 13S-dimethyl 2,3,4,7, 8R, 9S, 10, 11, 12, 13, 14S, 15, 16, 17-hexadecahydro-1H-cyclopenta[a]phenanthrene-3R, 7R, 17S-triol] | 75% | 2.72 | 2.26 | 2.10 | 2.1 | improved compared to monotherapy | improved compared to 17-EAT monotherapy | maintained a higher mean body weight compared to either vehicle or amantadine | decreases expression | anti-neuroinflammatory or neuroprotective activity | active in rodent models of systemic inflammation
induced LID expression in all subjects | N[C@@H](Cc1ccc(O)c(O)c1)C(=O)O [Levodopa, L-3,4-dihydroxyphenylalanine] |  |  |  |  |  |  |  |  |  |  | 
